In brackets after ≈: the same amount, converted by molar mass.

Assay [1] is described as follows: ABTS radical scavenging assay. Particulars: 5 min, 734 nm. The method, then: (§1) Three in vitro antioxidant assays, namely, 2,2′-azinobis-(3-ethylbenzothiazoline-6-sulfonic acid (ABTS), 2,2′-diphenyl-1-picrylhydrazyl (DPPH), and ferric ion reducing antioxidant power (FRAP), were used to determine the antioxidant activity according to methods previously reported. Ascorbic acid (0 to 200 μg/mL) was used as positive control in these experiments, and Formula (1) below allowed us to evaluate the percentage of radical scavenging capacity. The inhibitory concentration (IC50) values were evaluated by plotting a nonlinear graph of percentage radical scavenging capacity versus logarithm of tested concentrations. Scavenging capacity (%) = [(A0 − A1)/A0] × 100(1) where A0 is absorbance of negative control, and A1 is absorbance of extract with ABTS^•+ radical cation.
Specifically, 2.45 mM of potassium persulfate and 7 mM of ABTS solution were dissolved in methanol and combined to create the ABTS^•+ radical cation, which was stored at 25 °C for a minimum of 16 h. At 734 nm, the absorbance of the generated ABTS^•+ was measured using a SpectraMax iD3 multi-mode microplate reader (Molecular Devices, San Jose, CA, USA) and calibrated to 0.70 ± 0.02. After carefully diluting 40 μL of EMME (1 mg/mL) with methanol and adding 160 μL of (ABTS^•+) radical cation, the 96-well microtiter plate was left to sit at 25 °C in the dark for five minutes. Using a SpectraMax iD3 multi-mode microplate reader, the absorbance values were measured at 734 nm against the blank (extract plus methanol without ABTS^•+). A nonlinear curve representing the percentage of ABTS^•+ scavenging capacity vs. a logarithm of tested concentrations was then plotted to determine the inhibitory concentration (IC50) values.
(§2) The IC50 values were calculated for each biological experiment using the nonlinear regression curve of the % inhibitory activity versus the logarithm (log10) of the various tested concentrations using GraphPad Prism 6.0 software (GraphPad Software, Inc., San Diego, CA, USA). The data are shown as mean ⁱ SEM (standard error of the mean) values, and all biological experiments were conducted in triplicate (n = 3). The statistical analysis was conducted using GraphPad Prism 6.0 software (GraphPad Software, Inc., San Diego, CA, USA). One-way analysis of variance (ANOVA) was used to compare the data across the tested samples and/or controls, and Student–Newman–Keuls or Dunnett’s tests were then performed. A p-value of less than 0.05 indicated a significant difference in the results.

Assay [2] in a line: Ferric reducing antioxidant power (FRAP) assay. Particulars: relative to 200 µg/mL gallic acid, 700 nm. Here is the method: as §1
The generally used and almost standard method for performing the FRAP test is that developed by Benzie and Strain [15]. Indeed, the antioxidant power is determined in a colorimetric reaction linked to redox in which an intense blue-colored ferroustripyridyltriazine (Fe^2+-TPTZ) complex is obtained via reduction at a low pH of ferrictripyridyltriazine (Fe^3+-TPTZ). The incubation of a quantity of 50 μL of EMME (1.56 to 200 μg/mL) or 200 μg/mL of gallic acid (Merck, Lethabong, South Africa) on a 96-well plate was carried out with 50 μL of 1% potassium ferricyanide (prepared in 0.2 M of sodium phosphate buffer, pH 6.6) for 30 min at 50 °C. Then, 50 μL of 10% trichloroacetic acid (TCA), 40 μL of distilled water, and 10 μL of 0.1% ferric chloride were added, respectively. The absorbance values were recorded on a blank (extract plus sodium phosphate buffer) at 700 nm on a SpectraMax iD3 multi-mode microplate reader (Molecular Devices, San Jose, CA, USA); the FRAP activity was indicated as inhibition percentage of 200 μg/mL of gallic acid.
as §2

In the case of `CCCCCCCCCCCCCCCC` [Compound 1, n-hexadecane], in assay [1], the “IC50 ABTS” value is more than 100 µg/mL. In addition, the “IC50 FRAP” value in assay [2] was more than 200 µg/mL.
Regarding `CCCCCCCCCCCCCCCCCCCCCCCO` [Compound 3, tricosan-1-ol], the “IC50 ABTS” value in assay [1] is more than 100 µg/mL. The “IC50 FRAP” value in assay [2] is more than 200 µg/mL.
Regarding `O=c1c2c(O)cc(O)cc2oc2oc3cc(O)ccc3c12` [Compound 4, lupinalbin A], the “IC50 ABTS” value in assay [1] is recorded as more than 100 µg/mL. Also, the “IC50 FRAP” value in assay [2] is more than 200 µg/mL.
Regarding `O=c1c(-c2ccc(O)cc2)coc2cc(O[C@@H]3O[C@H](CO)[C@@H](O)[C@H](O)[C@H]3O)cc(O)c12` [Compound 5, genistin], the entries for the “IC50 ABTS” value in assay [1] and in assay [1] (listed as genistin) were 91.02 ± 1.33 µg/mL (≈ 211 µM) and 99.89 µg/mL (≈ 231 µM), respectively. Also, in assay [2], the “IC50 FRAP” value is on record as more than 200 µg/mL.
`CO[C@H]1[C@H](O)[C@@H](O)[C@@H](O)[C@H](O)[C@@H]1O` [Compound 6, D-pinitol]: the “IC50 ABTS” value in assay [1] was more than 100 µg/mL. Further, in assay [2], the “IC50 FRAP” value is on record as more than 200 µg/mL.
`CC[C@H](/C=C/[C@@H](C)[C@H]1CC[C@H]2[C@@H]3CC=C4C[C@@H](O[C@@H]5O[C@H](CO)[C@@H](O)[C@H](O)[C@H]5O)CC[C@]4(C)[C@H]3CC[C@]12C)C(C)C` [Compound 7, stigmasterol glucoside]: in assay [1], the “IC50 ABTS” value is given as more than 100 µg/mL. For the same compound, the “IC50 FRAP” value in assay [2] is on record as more than 200 µg/mL.

For the origin of these results see PMC11678782, “The Antioxidant and Anti-Inflammatory Activities of the Methanolic Extract, Fractions, and Isolated Compounds from Eriosema montanum Baker f. (Fabaceae)” (Molecules, 2024).
